Results from PMC3606118, “Salvianolic Acid A, a Novel Matrix Metalloproteinase-9 Inhibitor, Prevents Cardiac Remodeling in Spontaneously Hypertensive Rats” (PLoS ONE, 2013).

Key:
[1] = test system: neonatal cardiac fibroblast; assay: Transwell migration of neonatal cardiac fibroblast induced by MMP-9 CD; type: cell-based, Wistar rats; conditions: 1 µmol/L SalA, 200 nmol/L MMP-9 CD, 24 h (MMP-9 alone 85.2±12.4, Con 25.9±2.1)
Method: Primary cardiac fibroblast was obtained from neonatal rats and National Institutes of Health (NIH) Guide for the Care and Use of Laboratory Animals was followed throughout. Wistar rats (2–4 day old) were sacrificed by cervical dislocation; ventricles were minced and digested with 0.1% trypsin at 37°C for 8 min. The liberated cells were collected by centrifugations; non-digested chunk materials were further digested in 0.1% trypsin for an additional 8 min. This digestion procedure was repeated 3–4 times. All the liberated cells were pelleted by centrifugation at 1,000 rpm for 10 min, re-suspended in DMEM containing 10% fetal bovine serum (FBS), and cultured in a 100-mm noncoated culture flask at 37°C with 5% CO2 for 2 h. Adherent cardiac fibroblasts were collected and maintained in DMEM supplemented with 10% FBS, 100 U/mL penicillin, 100 µg/mL streptomycin [12]. […]
Transwell assay was employed to evaluate effects of SalA on neonatal cardiac fibroblast migration induced by MMP-9 CD. […] After incubating for 24 h, migrated cells (in the lower side of migration chamber) were stained with 0.1% crystal violet and counted with a microscope at 200 X magnification. Five to six view fields were counted on each membrane. Migration is expressed as the mean value of total number of migrated cells per field.

[2] = Toxicological evaluation of SalA on SHR; type: in vivo, SHR rats
Method: 2-month old male SHR rats were given rodent chow containing 8% NaCl 4 weeks before SaA treatment to the end of the experiment. Rats were divided into four groups (20 per group) and were injected intraperitoneally with saline or SalA everyday at the indicated dose for 4 weeks. The four groups were named as SalA (0 mg/kg), SalA (2.5 mg/kg), SalA (5 mg/kg), SalA (10 mg/kg) basing on the dose of SalA, respectively.
After ketamine-xylazine anesthesia (ketamine: xylazine, 60∶5 mg/kg, intramuscularly), heart, liver and kidney samples from experimental animals were fixed with 4% neutral-buffered paraformaldehyde for 24 h. Specimens were paraffin-embedded, sliced at 5 µm, and stained with haematoxylin and eosin. After staining, the sections were rinsed with distilled water, dehydrated, and mounted with Permount. Photomicrographs were taken using an Olympus BX51 microscope plus Olympus DP71 CCD camera (Olympus Corporation). Software Image-Pro Plus version 6.0 was used and approximately 150 cells per heart were measured to determine the average myocyte circumference. Paraffin-embedded slices were also stained with 0.1% picric sirius red (Sigma-Aldrich Inc, St Louis, USA) for fibrillar collagen. Collagen volume fraction (CVF) was expressed as a percentage of the total area of the field occupied by collagen staining.

[3] = test system: neonatal cardiac fibroblasts; assay: Myofibroblast transformation (α-SMA immunofluorescence) induced by MMP-9 CD; type: cell-based, Wistar rats; conditions: 1 or 10 µmol/L SalA, 200 nmol/L MMP-9 CD, 24 h
Method: Primary cardiac fibroblast was obtained from neonatal rats and National Institutes of Health (NIH) Guide for the Care and Use of Laboratory Animals was followed throughout. Wistar rats (2–4 day old) were sacrificed by cervical dislocation; ventricles were minced and digested with 0.1% trypsin at 37°C for 8 min. The liberated cells were collected by centrifugations; non-digested chunk materials were further digested in 0.1% trypsin for an additional 8 min. This digestion procedure was repeated 3–4 times. All the liberated cells were pelleted by centrifugation at 1,000 rpm for 10 min, re-suspended in DMEM containing 10% fetal bovine serum (FBS), and cultured in a 100-mm noncoated culture flask at 37°C with 5% CO2 for 2 h. Adherent cardiac fibroblasts were collected and maintained in DMEM supplemented with 10% FBS, 100 U/mL penicillin, 100 µg/mL streptomycin [12]. Cardiac fibroblasts were treated by vehicle (Con); 200 nmol/L MMP-9 CD (MMP-9); 200 nmol/L MMP-9 CD plus 1 µmol/L SalA [MMP-9/SalA(1)]; or 200 nmol/L MMP-9 CD plus 10 µmol/L SalA [MMP-9/SalA(10)] for the following research. All the detections were conducted after 24 h treatment.
α-SMA expression was used to evaluate the effect of SalA on myofibroblast transformation from fibroblast induced by MMP-9 CD. Neonatal cardiac fibroblasts were cultured on glass slides until reaching ∼70% confluence. […]

With `O=C(/C=C/c1ccc(O)c(O)c1/C=C/c1ccc(O)c(O)c1)O[C@H](Cc1ccc(O)c(O)c1)C(=O)O` [SalA, salvianolic acid A] the migrated cells [1] was 45.3±9.1 cells per field, the “signs of toxicity or mortality” value ([2]; intraperitoneally administered to rats for 1 month) was “failed to induce any signs of toxicity or mortality” and the “body weight, food consumption” value ([2]; rat, in vivo, 10 mg/kg) was “no changes”. For the same molecule, the “α-SMA up-regulation (myofibroblast transformation) induced by MMP-9 CD” value [3] was “reversed the effects of MMP-9 CD”.
